Results reported in ChEMBL document CHEMBL5321270, “Discovery of Pyrazolone Carbothioamide Derivatives as Inhibitors of the Pdr1-KIX Interaction for Combinational Treatment of Azole-Resistant Candidiasis” (J Med Chem, 2023).
In brackets after ≈: the same amount, converted by molar mass. Activity calls are given as the source filed them. The rule behind the calls is not given here.

What was measured:
Nakaseomyces glabratus [1] = assay: Synergistic antifungal activity against fluconazole-resistant Candida glabrata 0161 assessed as fractional inhibitory concentration index incubated for 48 hrs in presence of B7 compound by checkerboard microdilution method; type: functional
Nakaseomyces glabratus [2] = assay: Antifungal activity against fluconazole-resistant Candida glabrata 0161 assessed as downregulation of ERG11 gene expression at 32 ug/ml by RT-PCR analysis; type: functional, organism-based; settings: dose 32.0 µg/ml
Nakaseomyces glabratus [3] = assay: Synergistic antifungal activity against fluconazole-resistant Candida glabrata 0161 assessed as fractional inhibitory concentration index incubated for 48 hrs in presence of B6 compound by checkerboard microdilution method; type: functional
Nakaseomyces glabratus [4] = assay: Synergistic antifungal activity against fluconazole-resistant Candida glabrata 0161 assessed as fractional inhibitory concentration index incubated for 48 hrs in presence of B3 compound by checkerboard microdilution method; type: functional
Nakaseomyces glabratus [5] = assay: Synergistic antifungal activity against fluconazole-resistant Candida glabrata 0161 assessed as fractional inhibitory concentration index incubated for 48 hrs in presence of B2 compound by checkerboard microdilution method; type: functional
Nakaseomyces glabratus [6] = assay: Synergistic antifungal activity against fluconazole-resistant Candida glabrata 0161 assessed as fractional inhibitory concentration index incubated for 48 hrs in presence of B5 compound by checkerboard microdilution method; type: functional
Nakaseomyces glabratus [7] = assay: Synergistic antifungal activity against fluconazole-resistant Candida glabrata 0161 assessed as fractional inhibitory concentration index incubated for 48 hrs in presence of A9 compound by checkerboard microdilution method; type: functional
Nakaseomyces glabratus [8] = assay: Synergistic antifungal activity against fluconazole-resistant Candida glabrata 0161 assessed as inhibition of fungal biofilm formation at 4 ug/ml incubated for 24 hrs in presence of compound B8 by XXT reduction menadione assay; type: functional
Nakaseomyces glabratus [9] = assay: Synergistic antifungal activity against fluconazole-resistant Candida glabrata 0161 assessed as fractional inhibitory concentration index incubated for 48 hrs in presence of A14 compound by checkerboard microdilution method; type: functional
Nakaseomyces glabratus [10] = assay: Antifungal activity against fluconazole-resistant Candida glabrata 0161 assessed as inhibition of fungal mature biofilm formation at 0.25 to 64 ug/ml incubated for 24 hrs by XXT reduction menadione assay; type: functional, organism-based; settings: dose 0.25-64 µg/ml
Nakaseomyces glabratus [11] = assay: Antifungal activity against fluconazole-resistant Candida glabrata 0161 assessed as fungal growth inhibition incubated for 48 hrs by microplate reader assay; type: functional
Nakaseomyces glabratus [12] = assay: Synergistic antifungal activity against fluconazole-resistant Candida glabrata 0161 assessed as fractional inhibitory concentration index incubated for 48 hrs in presence of A11 compound by checkerboard microdilution method; type: functional
Nakaseomyces glabratus [13] = assay: Synergistic antifungal activity against fluconazole-resistant Candida glabrata 0161 assessed as fractional inhibitory concentration index incubated for 48 hrs in presence of B4 compound by checkerboard microdilution method; type: functional
Nakaseomyces glabratus [14] = assay: Antifungal activity against FLC-resistant Candida glabrata 0161 infected in cyclophosphamide immunosuppressed ICR mouse model assessed as pathological change in kidney at 5 mg/kg,ip administrated for 5 days by Hematoxylin and eosin staining based analysis; type: functional, organism-based; settings: time 5.0 day
Nakaseomyces glabratus [15] = assay: Synergistic antifungal activity against fluconazole-resistant Candida glabrata 0161 assessed as fractional inhibitory concentration index incubated for 48 hrs in presence of A13 compound by checkerboard microdilution method; type: functional
Nakaseomyces glabratus [16] = assay: Synergistic antifungal activity against fluconazole-resistant Candida glabrata 0161 assessed as fractional inhibitory concentration index incubated for 48 hrs in presence of A10 compound by checkerboard microdilution method; type: functional
Nakaseomyces glabratus [17] = assay: Synergistic antifungal activity against fluconazole-resistant Candida glabrata 0161 assessed as fractional inhibitory concentration index incubated for 48 hrs in presence of B1 compound by checkerboard microdilution method; type: functional
Nakaseomyces glabratus [18] = assay: Antifungal activity against FLC-resistant Candida glabrata 0161 infected in cyclophosphamide immunosuppressed ICR mouse model assessed as inhibition of fungal growth in kidney at 5 mg/kg,ip administrated for 5 days; type: functional, organism-based; settings: time 5.0 day
Nakaseomyces glabratus [19] = assay: Synergistic antifungal activity against fluconazole-resistant Candida glabrata 0161 assessed as fractional inhibitory concentration index incubated for 48 hrs in presence of A7 compound by checkerboard microdilution method; type: functional
Nakaseomyces glabratus [20] = assay: Synergistic antifungal activity against fluconazole-resistant Candida glabrata 0161 assessed as fractional inhibitory concentration index incubated for 48 hrs in presence of A4 compound by checkerboard microdilution method; type: functional
Nakaseomyces glabratus [21] = assay: Antifungal activity against fluconazole-resistant Candida glabrata 0161 assessed as downregulation of PDR1 gene expression at 32 ug/ml by RT-PCR analysis; type: functional, organism-based; settings: dose 32.0 µg/ml
Nakaseomyces glabratus [22] = assay: Synergistic antifungal activity against fluconazole-resistant Candida glabrata 0161 assessed as fractional inhibitory concentration index incubated for 48 hrs in presence of A5 compound by checkerboard microdilution method; type: functional
Nakaseomyces glabratus [23] = assay: Synergistic antifungal activity against fluconazole-resistant Candida glabrata 0161 assessed as fractional inhibitory concentration index incubated for 48 hrs in presence of B8 compound by checkerboard microdilution method; type: functional
Nakaseomyces glabratus [24] = assay: Synergistic antifungal activity against fluconazole-resistant Candida glabrata 0161 assessed as fractional inhibitory concentration index incubated for 48 hrs in presence of A3 compound by checkerboard microdilution method; type: functional
Nakaseomyces glabratus [25] = assay: Synergistic antifungal activity against fluconazole-resistant Candida glabrata 0161 assessed as fractional inhibitory concentration index incubated for 48 hrs in presence of A8 compound by checkerboard microdilution method; type: functional
Nakaseomyces glabratus [26] = assay: Antifungal activity against fluconazole-resistant Candida glabrata 0161 assessed as fungal growth inhibition at 16 ug/ml incubated for 48 hrs by time-growth curve assay; type: functional, organism-based; settings: dose 16.0 µg/ml
Nakaseomyces glabratus [27] = assay: Synergistic antifungal activity against fluconazole-resistant Candida glabrata 0161 assessed as fractional inhibitory concentration index incubated for 48 hrs in presence of A6 compound by checkerboard microdilution method; type: functional
Nakaseomyces glabratus [28] = assay: Synergistic antifungal activity against fluconazole-resistant Candida glabrata 0161 assessed as fractional inhibitory concentration index incubated for 48 hrs in presence of A1 compound by checkerboard microdilution method; type: functional
Nakaseomyces glabratus [29] = assay: Synergistic antifungal activity against fluconazole-resistant Candida glabrata 0161 assessed as fractional inhibitory concentration index incubated for 48 hrs in presence of A12 compound by checkerboard microdilution method; type: functional
Nakaseomyces glabratus [30] = assay: Antifungal activity against FLC-resistant Candida glabrata 0161 infected in cyclophosphamide immunosuppressed ICR mouse model assessed as inhibition of fungal growth in kidney at 40 mg/kg,ip administrated for 5 days; type: functional, organism-based; settings: time 5.0 day
Nakaseomyces glabratus [31] = assay: Antifungal activity against fluconazole-resistant Candida glabrata 0161 assessed as downregulation of CDR2 gene expression at 32 ug/ml by RT-PCR analysis; type: functional, organism-based; settings: dose 32.0 µg/ml
Nakaseomyces glabratus [32] = assay: Synergistic antifungal activity against fluconazole-resistant Candida glabrata 0161 assessed as fractional inhibitory concentration index incubated for 48 hrs in presence of A2 compound by checkerboard microdilution method; type: functional
Nakaseomyces glabratus [33] = assay: Antifungal activity against fluconazole-resistant Candida glabrata 0161 assessed as inhibition of fungal biofilm formation at 32 ug/ml incubated for 24 hrs by XXT reduction menadione assay; type: functional
Nakaseomyces glabratus [34] = assay: Antifungal activity against fluconazole-resistant Candida glabrata 0161 assessed as downregulation of CDR1 gene expression at 32 ug/ml by RT-PCR analysis; type: functional, organism-based; settings: dose 32.0 µg/ml
Candida parapsilosis = assay: Antifungal activity against Candida parapsilosis 20090 assessed as fungal growth inhibition incubated for 48 hrs by microplate reader assay; type: functional; settings: Lodderomyces parapsilosis
Nakaseomyces glabratus [35] = assay: Antifungal activity against fluconazole-resistant Candida glabrata 0161 assessed as fluconazole fractional inhibitory concentration incubated for 48 hrs in presence of fluconazole by microplate reader assay; type: functional
Nakaseomyces glabratus [36] = assay: Antifungal activity against fluconazole-resistant Candida glabrata 8535 assessed as fungal growth inhibition incubated for 48 hrs by microplate reader assay; type: functional
Aspergillus fumigatus = assay: Antifungal activity against Aspergillus fumigatus 7544 assessed as fungal growth inhibition incubated for 48 hrs by microplate reader assay; type: functional
Nannizzia gypsea = assay: Antifungal activity against Microsporum gypseum assessed as fungal growth inhibition incubated for 48 hrs by microplate reader assay; type: functional
Nakaseomyces glabratus [37] = assay: Antifungal activity against fluconazole-resistant Candida glabrata 9256 assessed as fungal growth inhibition incubated for 48 hrs by microplate reader assay; type: functional
Cryptococcus neoformans = assay: Antifungal activity against Cryptococcus neoformans H99 assessed as fungal growth inhibition incubated for 48 hrs by microplate reader assay; type: functional
Nakaseomyces glabratus [38] = assay: Synergistic antifungal activity against fluconazole-resistant Candida glabrata 0161 assessed as fractional inhibitory concentration index incubated for 48 hrs in presence of fluconazole by checkerboard microdilution method; type: functional
[39] = Inhibition of fluorescent probe FITC tagged PDR1-KIX domain (unknown origin) protein-protein interaction assessed as inhibition constant incubated for 2 hrs by fluorescence polarization binding assay
Trichophyton rubrum = assay: Antifungal activity against Trichophyton rubrum assessed as fungal growth inhibition incubated for 48 hrs by microplate reader assay; type: functional
Candida tropicalis = assay: Antifungal activity against Candida tropicalis 10186 assessed as fungal growth inhibition incubated for 48 hrs by microplate reader assay; type: functional
Candida albicans = assay: Antifungal activity against Candida albicans assessed as fungal growth inhibition incubated for 48 hrs by microplate reader assay; type: functional
[Candida] auris [40] = Antifungal activity against Candida auris 0030 assessed as fungal growth inhibition incubated for 48 hrs by microplate reader assay; type: functional; settings: Candidozyma auris
[Candida] auris [41] = Antifungal activity against Candida auris 15448 assessed as fungal growth inhibition incubated for 48 hrs by microplate reader assay; type: functional; settings: Candidozyma auris
Nakaseomyces glabratus [42] = assay: Antifungal activity against fluconazole-resistant Candida glabrata 0161 assessed as fractional inhibitory concentration incubated for 48 hrs in presence of fluconazole by microplate reader assay; type: functional

## OC(Cn1cncn1)(Cn1cncn1)c1ccc(F)cc1F [FLUCONAZOLE]
Nakaseomyces glabratus [1]
  fractional inhibitory concentration index (FICI): 0.52
Nakaseomyces glabratus [2]
  Activity: inactive
Nakaseomyces glabratus [3]
  fractional inhibitory concentration index (FICI): 0.53
Nakaseomyces glabratus [4]
  fractional inhibitory concentration index (FICI): 0.31
Nakaseomyces glabratus [5]
  fractional inhibitory concentration index (FICI): 0.29
Nakaseomyces glabratus [6]
  fractional inhibitory concentration index (FICI): 0.76
Nakaseomyces glabratus [7]
  fractional inhibitory concentration index (FICI): 0.53
Nakaseomyces glabratus [8]
  inhibition at 4 µg/mL: 33%
Nakaseomyces glabratus [9]
  fractional inhibitory concentration index (FICI): 0.56
Nakaseomyces glabratus [10]
  inhibition: Active
Nakaseomyces glabratus [11]
  MIC: 32 µg/mL (≈ 104 µM)
Nakaseomyces glabratus [12]
  fractional inhibitory concentration index (FICI): 0.52
Nakaseomyces glabratus [13]
  fractional inhibitory concentration index (FICI): 0.31
Nakaseomyces glabratus [14]
  Activity: Active
Nakaseomyces glabratus [15]
  fractional inhibitory concentration index (FICI): 0.53
Nakaseomyces glabratus [16]
  fractional inhibitory concentration index (FICI): 0.53
Nakaseomyces glabratus [17]
  fractional inhibitory concentration index (FICI): 0.53
Nakaseomyces glabratus [18]
  Activity: inactive
Nakaseomyces glabratus [19]
  fractional inhibitory concentration index (FICI): 0.38
Nakaseomyces glabratus [20]
  fractional inhibitory concentration index (FICI): 0.53
Nakaseomyces glabratus [21]
  Activity: inactive
Nakaseomyces glabratus [22]
  fractional inhibitory concentration index (FICI): 0.56
Nakaseomyces glabratus [23]
  fractional inhibitory concentration index (FICI): 0.28
Nakaseomyces glabratus [24]
  fractional inhibitory concentration index (FICI): 0.56
Nakaseomyces glabratus [25]
  fractional inhibitory concentration index (FICI): 0.53
Nakaseomyces glabratus [26]
  Activity: inactive
Nakaseomyces glabratus [27]
  fractional inhibitory concentration index (FICI): 0.25
Nakaseomyces glabratus [28]
  fractional inhibitory concentration index (FICI): 0.31
Nakaseomyces glabratus [29]
  fractional inhibitory concentration index (FICI): 0.53
Nakaseomyces glabratus [30]
  Activity: Active
Nakaseomyces glabratus [31]
  Activity: inactive
Nakaseomyces glabratus [32]
  fractional inhibitory concentration index (FICI): 0.56
Nakaseomyces glabratus [33]
  inhibition at 32 µg/mL: 39%
Nakaseomyces glabratus [34]
  Activity: inactive

## Nc1cc(=O)n(C(=S)Nc2ccc(Cl)cc2)[nH]1
Candida parapsilosis
  MIC: 4 µg/mL (≈ 14.9 µM)
Nakaseomyces glabratus [35]
  fluconazole MIC in combination: 2 µg/mL
Nakaseomyces glabratus [36]
  MIC: 0.25 µg/mL (≈ 0.93 µM)
Nakaseomyces glabratus [11]
  MIC: 0.25 µg/mL (≈ 0.93 µM)
Aspergillus fumigatus
  MIC: 16 µg/mL (≈ 59.5 µM)
Nannizzia gypsea
  MIC: 1 µg/mL (≈ 3.72 µM)
Nakaseomyces glabratus [37]
  MIC: 0.25 µg/mL (≈ 0.93 µM)
Cryptococcus neoformans
  MIC: 0.063 µg/mL (≈ 0.234 µM)
Nakaseomyces glabratus [38]
  fractional inhibitory concentration index (FICI): 0.31
[39]
  Ki: 54.5 µM
Trichophyton rubrum
  MIC: 1 µg/mL (≈ 3.72 µM)
Candida tropicalis
  MIC: 4 µg/mL (≈ 14.9 µM)
Candida albicans
  MIC: 4 µg/mL (≈ 14.9 µM)
[Candida] auris [40]
  MIC: 2 µg/mL (≈ 7.44 µM)
[Candida] auris [41]
  MIC: 2 µg/mL (≈ 7.44 µM)
Nakaseomyces glabratus [42]
  FIC: 0.063 µg/mL
